Data: the OPERA property sets (Mansouri et al. 2018)

settings: not given

Compound	boiling point [°C]	log10 vapour pressure (mmHg)	melting point [°C]	log10 Koc (L/kg)	ready biodegradability	log10 Henry constant (atm·m³/mol)	log10 Koa
CC(F)(Cl)Cl	32	2.78	-104				
O=C1OC(=O)c2c1ccc(Cl)c2Cl	329		121				
CCCN(CCC)c1c([N+](=O)[O-])cc(S(N)(=O)=O)cc1[N+](=O)[O-]			141	3.4	not readily biodegradable		
CCC(Oc1ccc(C(C)(C)CC)cc1C(C)(C)CC)C(=O)Nc1ccc(NC(=O)C(F)(F)C(F)(F)C(F)(F)F)c(O)c1 (configuration not stated)					not readily biodegradable		
CCCNCCC	109	1.3	-63		readily biodegradable	-4.29	3.59
c1ccc([C@@H]2CCCNC2)cc1	257		14.5				
CC(C)(C)c1ccc2ccccc2c1	276		-4				
CCOC(=O)c1sc(N)nc1C(F)(F)F			186				
Cc1ccc(S(N)(=O)=O)cc1			138		not readily biodegradable		
CCNc1nc(NC(C)C(C)C)nc(SC)n1 (configuration not stated)		-5.85	65				
C=C(C)CNc1ccc(C(C)C(=O)O)cc1 (configuration not stated)			107				
Clc1cc(Cl)cc(-c2ccccc2Cl)c1						-3.7	
CCCCCCCC(C)=O	195	-0.205	-7.5			-3.44	
C[C@H]1C[C@@H]2[C@H]([C@@H](O)C[C@@]3(C)[C@H]2CC[C@]3(O)C(=O)CO)[C@@]2(C)C=CC(=O)C=C12			232				
CCCCCCCCCCCCCCCCCCCCCC(=O)OC			54				
CCSc1nc(NC(C)C)nc(NC(C)C)n1		-5.8	105	3.07			
CN(C)C(=O)Nc1ccc(Cl)cc1		-6.3	170	1.95			
CCOCCN	108						
FC(F)=C(F)C(F)(F)C(F)(F)C(F)(F)C(F)(F)F	57						
c1cnccn1	115	1.03	55		readily biodegradable		
COc1cc(CC(=O)O)ccc1O			144				
CCS(=O)(=O)C(C)(C)S(=O)(=O)CC	300		126				
CC1(C)[C@H](C(=O)O[C@H](C#N)c2cccc(Oc3ccccc3)c2)[C@@H]1C(Br)C(Br)(Br)Br (some centres not stated)		-10.4	143	5			
CCNc1nc(Cl)nc(NC(C)C)n1		-6.54	173	2.24	not readily biodegradable		
CNCCc1ccc(O)c(O)c1			188				
CC(Cl)C(C)(C)O (configuration not stated)	142						

Compound	boiling point [°C]	log10 vapour pressure (mmHg)	melting point [°C]	log10 Koc (L/kg)	ready biodegradability	log10 Henry constant (atm·m³/mol)	log10 Koa
Oc1cc(Cl)cc(Cl)c1	233	-2.07	68	2.83	not readily biodegradable		
CCCOC(=O)CC(C)C	156	0.413					
O=S(=O)(O)c1cc(S(=O)(=O)O)c2c(/N=N\c3ccc(S(=O)(=O)O)c4ccccc34)c(O)ccc2c1					not readily biodegradable		
CN(C)CCc1c[nH]c2ccc(O)cc12			146				
CC(=O)Nc1cccc([N+](=O)[O-])c1			155	1.94			
C=CC(C)CCC=C(C)C (configuration not stated)					readily biodegradable		
CC1=NN(c2ccc(C)cc2)C(=O)C1			138				
O=C1CCC(=O)N1Cl	216		150				
NC(=O)c1cnccn1			192				
CS(=O)(=O)c1ccccc1			86				
CCCCCCCCCCCCF		-0.682					
NC(=O)N=NC(N)=O		-9.73			not readily biodegradable		
Nc1nc(N)c2nc(-c3ccccc3)c(N)nc2n1			316				
CCCC(N)CCC	140						
Cc1c(N(C)C)c(=O)n(-c2ccccc2)n1C			134				
N=C(N)NC(=N)NCCc1ccccc1			176				
CCCC(C)=C(C)C	122	1.26	-115				
CCOCCC(OCC)OCC	185		53				
CC(=O)Nc1ccccc1C	296		110				
CC1(C)[C@H](/C=C2\CCSC2=O)[C@@H]1C(=O)OCc1coc(Cc2ccccc2)c1			31				
Clc1ccc2c(c1)C(N1CCNCC1)=Nc1ccccc1O2			176				
O=COCCCc1ccccc1	250						
Cc1ccc(CO)cc1	217		61.5				
Cc1cc(O)c2c(O)c3c(O)cccc3cc2c1			204				
CC(CN1c2ccccc2Sc2ccccc21)N(C)C (configuration not stated)			60				

same assay, conditions: fish

Compound	log10 biotransformation half-life (days)	log10 BCF
Clc1ccc(Oc2cc(Cl)c(Cl)cc2Cl)cc1	1.93	
O=C(O)c1c(Cl)ccc(Cl)c1Cl		0.54
CC1CNC(=S)N1 (configuration not stated)		1
Clc1ccc(-c2cc(Cl)c(Cl)c(Cl)c2Cl)cc1	2.36	
CCNc1nc(Cl)nc(NC(C)C)n1	-1.05	0.9
Oc1cc(Cl)cc(Cl)c1	-0.91	1.91
